{"source": "patent US8232283B2", "about": "“Raf inhibitors” (Forma Therapeutics, Inc., priority 2008, dated 2012)", "key": {"[1]": {"target": "B-Raf (V600E) (Homo sapiens, UniProt P15056, V600E)", "sequence (P15056 whole entry V600E)": "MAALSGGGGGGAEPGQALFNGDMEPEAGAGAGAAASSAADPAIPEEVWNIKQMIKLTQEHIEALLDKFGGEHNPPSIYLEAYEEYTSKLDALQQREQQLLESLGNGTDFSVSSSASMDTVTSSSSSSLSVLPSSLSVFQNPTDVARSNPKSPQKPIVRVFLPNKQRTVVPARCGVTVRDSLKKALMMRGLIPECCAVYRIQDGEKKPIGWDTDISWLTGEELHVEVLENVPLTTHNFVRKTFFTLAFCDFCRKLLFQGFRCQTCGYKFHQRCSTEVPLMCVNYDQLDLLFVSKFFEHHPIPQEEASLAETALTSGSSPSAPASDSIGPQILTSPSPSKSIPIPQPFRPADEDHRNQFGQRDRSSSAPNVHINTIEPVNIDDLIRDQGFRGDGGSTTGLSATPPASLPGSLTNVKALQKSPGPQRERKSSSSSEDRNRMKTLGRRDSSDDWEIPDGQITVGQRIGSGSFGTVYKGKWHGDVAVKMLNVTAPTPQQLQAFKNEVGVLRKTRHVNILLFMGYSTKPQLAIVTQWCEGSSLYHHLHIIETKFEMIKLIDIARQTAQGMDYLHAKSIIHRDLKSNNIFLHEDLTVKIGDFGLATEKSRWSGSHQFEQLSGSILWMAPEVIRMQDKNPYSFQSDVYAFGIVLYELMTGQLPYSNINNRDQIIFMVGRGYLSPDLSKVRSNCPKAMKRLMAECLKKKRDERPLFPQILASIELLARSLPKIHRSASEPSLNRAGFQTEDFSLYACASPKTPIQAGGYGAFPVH", "experiment": "SelectScreen Kinase Profiling Service (Invitrogen), IC50 with or without 5 h preincubation of kinase/test compound", "assay_type": "biochemical", "method": "(§1) d) B-Raf/B-Raf (V600E) (SelectScreen™ Assay)\n(§2) Selected compound of the present invention were tested in the Select Screen™ Kinase Profiling Service (Invitrogen Corporation, Madison, Wis. 53719, USA) against B-Raf and the B-Raf (V600E) [“V599E” in terminology used by Invitrogen], under conditions of non-disclosure, non-dissemination and non-use.\n(§3) In brief, compounds 11 and 39 (see Table 1) were tested at Invitrogen against B-Raf and the B-Raf (V600E), either with or without preincubation of kinase/test compound for 5 hours."}, "[2]": {"target": "B-Raf (Homo sapiens, UniProt P15056)", "sequence (P15056 whole entry)": "as the sequence (P15056 whole entry V600E) above, with E600V counted along it", "experiment": "SelectScreen Kinase Profiling Service (Invitrogen), IC50 with or without 5 h preincubation of kinase/test compound", "assay_type": "biochemical", "method": "as §1, §2, §3"}, "[3]": {"tested_on": "A-431 [B-Raf wildtype]", "experiment": "Anti-proliferative activity, SRB assay, 72 hours", "assay_type": "cell-based", "details": "Homo sapiens, read-out: CELLULAR IC50 [μM] A-431 [B-Raf wildtype]", "method_in_brief": "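Cells seeded 24 h before compound, then exposed to a concentration range for 72 h. TCA-fixed, stained with sulforhodamine B, bound dye solubilized in 10 mM Trizma and read at OD520. IC50 from % inhibition of proliferation vs DMSO-treated cells.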"}, "[4]": {"target": "T1, p38 (Homo sapiens, UniProt Q16539)", "T1 construct": "purchased Proteros biostructures GmbH (selectivity panel service)", "experiment": "Biochemical inhibition, standard selectivity panel (Proteros)", "parameters": "dose or concentration left out as unconfirmed", "method": "(§4) For example, selected compound of the present invention were tested in a standard selectivity panel including c-Raf, p38, and 22 other kinases (Proteros biostructures GmbH, Martinsried/Munich, Germany), under conditions of non-disclosure, non-dissemination and non-use.\n(§5) In brief, selected compounds of the present invention were tested […] in triplicates against c-Raf, p38 as well as against Ab1, Akt1, Aur A, c-Kit, c-Raf, Cdk1/CycB, Chk1, FGFR3, Flt3, Fyn, IGF1-R, INSR, Lyn, MAPK-ERK1, PAK-4, PKCalpha, Plk1, Ret, ROCK2, RSK 1, c-Src, TIE2, and VEGF-R2."}, "[5]": {"target": "T2, C-Raf (Homo sapiens, UniProt P04049)", "T2 construct": "purchased Proteros biostructures GmbH (selectivity panel service)", "experiment": "Biochemical inhibition, standard selectivity panel (Proteros)", "parameters": "dose or concentration left out as unconfirmed", "method": "as §4, §5"}, "[6]": {"tested_on": "HT-29 [B-Raf V600E mutant]", "experiment": "Anti-proliferative activity, SRB assay, 72 hours", "assay_type": "cell-based", "details": "Homo sapiens, read-out: CELLULAR IC50 [μM] HT-29 [B-Raf V600E mutant]", "method_in_brief": "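HT-29 cells, plated 24 h before dosing, exposed to a concentration range of compound for 72 h. Proliferation measured by sulforhodamine B staining after TCA fixation, absorbance at 520 nm; % inhibition versus DMSO-treated cells used to estimate IC50.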"}, "[7]": {"details": "5 h preincubation of kinase/test compound, read-out: IC50 [nM] B-Raf (V600E) 5 h preincub."}, "[8]": {"details": "without preincubation of kinase/test compound, read-out: IC50 [nM] B-Raf (V600E) w/o preincub."}, "[9]": {"details": "5 h preincubation of kinase/test compound, read-out: IC50 [nM] B-Raf 5 h preincub."}, "[10]": {"details": "without preincubation of kinase/test compound, read-out: IC50 [nM] B-Raf w/o preincub."}}, "note": "Read-outs that look alike come from different tables or passages of the source."}
{"smiles": "COn1c(=O)c(-c2cc(NC(=O)c3cccc(C(F)(F)F)c3F)ccc2Cl)cc2cnc(NCCN(C)C)nc21", "note": "[Compound 39, N-{4-Chloro-3-[2-(2-dimethylamino-ethylamino)-8-methoxy-7-oxo-7,8-dihydro-pyrido[2,3-d]pyrimidin-6-yl]-phenyl}-2-fluoro-3-trifluoromethyl-benzamide]", "values": [{"measurement": "IC50", "setting": "[1]; [7]", "result": "< 5", "unit": "nM"}, {"measurement": "IC50", "setting": "[1]; [8]", "result": "< 5", "unit": "nM"}, {"measurement": "IC50", "setting": "[2]; [9]", "result": "< 10", "unit": "nM"}, {"measurement": "IC50", "setting": "[2]; [10]", "result": "< 10", "unit": "nM"}, {"measurement": "IC50", "setting": "[3]", "result": "> 10", "unit": "µM"}, {"measurement": "inhibition", "setting": "[4]", "result": "> 70", "unit": "%"}, {"measurement": "inhibition", "setting": "[5]", "result": "> 70", "unit": "%"}, {"measurement": "IC50", "setting": "[6]", "result": "< 5", "unit": "µM"}]}
{"smiles": "COn1c(=O)c(-c2cc(NC(=O)Nc3cccc(Cl)c3)ccc2Cl)cc2cnc(NCCN(C)C)nc21", "note": "[Compound 43, 1-{4-Chloro-3-[2-(2-dimethylamino-ethylamino)-8-methoxy-7-oxo-7,8-dihydro-pyrido[2,3-d]pyrimidin-6-yl]-phenyl}-3-(3-chloro-phenyl)-urea]", "values": [{"measurement": "IC50", "setting": "[3]", "result": "> 10", "unit": "µM"}, {"measurement": "inhibition", "setting": "[4]", "result": "> 70", "unit": "%"}, {"measurement": "inhibition", "setting": "[5]", "result": "> 70", "unit": "%"}, {"measurement": "IC50", "setting": "[6]", "result": "< 5", "unit": "µM"}]}
{"smiles": "COn1c(=O)c(-c2cc(NC(=O)c3ccc(Oc4ccccc4)cc3)ccc2Cl)cc2cnc(NCCN(C)C)nc21", "note": "[Compound 27, N-{4-Chloro-3-[2-(2-dimethylamino-ethylamino)-8-methoxy-7-oxo-7,8-dihydro-pyrido[2,3-d]pyrimidin-6-yl]-phenyl}-4-phenoxy-benzamide]", "values": [{"measurement": "IC50", "setting": "[3]", "result": "< 10", "unit": "µM"}, {"measurement": "inhibition", "setting": "[4]", "result": "> 70", "unit": "%"}, {"measurement": "inhibition", "setting": "[5]", "result": "> 70", "unit": "%"}, {"measurement": "IC50", "setting": "[6]", "result": "< 5", "unit": "µM"}]}
{"smiles": "COn1c(=O)c(-c2cc(NC(=O)c3ccnc(N4CCOCC4)c3)ccc2Cl)cc2cnc(NCCN(C)C)nc21", "note": "[Compound 26, N-{4-Chloro-3-[2-(2-dimethylamino-ethylamino)-8-methoxy-7-oxo-7,8-dihydro-pyrido[2,3-d]pyrimidin-6-yl]-phenyl)-2-morpholin-4-yl-isonicotinamide]", "values": [{"measurement": "IC50", "setting": "[3]", "result": "> 10", "unit": "µM"}, {"measurement": "inhibition", "setting": "[4]", "result": "> 70", "unit": "%"}, {"measurement": "inhibition", "setting": "[5]", "result": "> 70", "unit": "%"}, {"measurement": "IC50", "setting": "[6]", "result": "< 10", "unit": "µM"}]}
{"smiles": "COn1c(=O)c(-c2cc(NC(=O)c3cc(C(C)(C)C)nn3C)ccc2Cl)cc2cnc(NCCN(C)C)nc21", "note": "[Compound 11, 5-tert-Butyl-2-methyl-2H-pyrazole-3-carboxylic acid {4-chloro-3-[2-(2-dimethylamino-ethylamino)-8-methoxy-7-oxo-7,8-dihydro-pyrido[2,3-d]pyrimidin-6-yl]-phenyl}-amide]", "values": [{"measurement": "IC50", "setting": "[1]; [7]", "result": "< 100", "unit": "nM"}, {"measurement": "IC50", "setting": "[1]; [8]", "result": "< 100", "unit": "nM"}, {"measurement": "IC50", "setting": "[2]; [9]", "result": "< 250", "unit": "nM"}, {"measurement": "IC50", "setting": "[2]; [10]", "result": "< 250", "unit": "nM"}, {"measurement": "IC50", "setting": "[3]", "result": "> 10", "unit": "µM"}, {"measurement": "IC50", "setting": "[6]", "result": "< 10", "unit": "µM"}]}
{"smiles": "COn1c(=O)c(-c2cc(NC(=O)c3cccc(Cl)c3)ccc2Cl)cc2cnc(NCCN(C)C)nc21", "note": "[Compound 18, 3-Chloro-N-{4-chloro-3-[2-(2-dimethylamino-ethylamino)-8-methoxy-7-oxo-7,8-dihydro-pyrido[2,3-d]pyrimidin-6-yl]-phenyl}-benzamide]", "values": [{"measurement": "IC50", "setting": "[3]", "result": "> 10", "unit": "µM"}, {"measurement": "inhibition", "setting": "[4]", "result": "> 70", "unit": "%"}, {"measurement": "inhibition", "setting": "[5]", "result": "> 70", "unit": "%"}, {"measurement": "IC50", "setting": "[6]", "result": "< 10", "unit": "µM"}]}
{"smiles": "COn1c(=O)c(-c2cc(NC(=O)c3ccc(C(C)(C)C)cc3)ccc2Cl)cc2cnc(NCCN(C)C)nc21", "note": "[Compound 37, 4-tert-Butyl-N-{4-chloro-3-[2-(2-dimethylamino-ethylamino)-8-methoxy-7-oxo-7,8-dihydro-pyrido[2,3-d]pyrimidin-6-yl]-phenyl)-benzamide]", "values": [{"measurement": "IC50", "setting": "[3]", "result": "< 10", "unit": "µM"}, {"measurement": "inhibition", "setting": "[4]", "result": "> 70", "unit": "%"}, {"measurement": "inhibition", "setting": "[5]", "result": "> 70", "unit": "%"}, {"measurement": "IC50", "setting": "[6]", "result": "< 5", "unit": "µM"}]}
{"smiles": "COn1c(=O)c(-c2cc(NC(=O)c3cc(C(C)(C)C)nn3-c3ccccc3)ccc2Cl)cc2cnc(NCCN(C)C)nc21", "note": "[Compound 31, 5-tert-Butyl-2-phenyl-2H-pyrazole-3-carboxylic acid {4-chloro-3-[2-(2-dimethylamino-ethylamino)-8-methoxy-7-oxo-7,8-dihydro-pyrido[2,3-d]pyrimidin-6-yl]-phenyl}-amide]", "values": [{"measurement": "IC50", "setting": "[3]", "result": "< 10", "unit": "µM"}, {"measurement": "inhibition", "setting": "[4]", "result": "> 70", "unit": "%"}, {"measurement": "inhibition", "setting": "[5]", "result": "~70", "unit": "%"}, {"measurement": "IC50", "setting": "[6]", "result": "< 5", "unit": "µM"}]}
{"smiles": "COn1c(=O)c(-c2cc(NC(=O)Cc3ccc(Cl)c(C(F)(F)F)c3)ccc2Cl)cc2cnc(NCCN(C)C)nc21", "note": "[Compound 16, N-{4-Chloro-3-[2-(2-dimethylamino-ethylamino)-8-methoxy-7-oxo-7,8-dihydro-pyrido[2,3-d]pyrimidin-6-yl]-phenyl)-2-(4-chloro-3-trifluoromethyl-phenyl)-acetamide]", "values": [{"measurement": "IC50", "setting": "[3]", "result": "> 10", "unit": "µM"}, {"measurement": "inhibition", "setting": "[4]", "result": "> 70", "unit": "%"}, {"measurement": "inhibition", "setting": "[5]", "result": "> 70", "unit": "%"}, {"measurement": "IC50", "setting": "[6]", "result": "< 5", "unit": "µM"}]}
